Assay results taken from patent US4444776A, “Dipyrido (4,3-B) (3,4-F) indoles, process for obtaining them, therapeutical use and pharmaceutical compositions” (priority 1977, dated 1984).

Experiments:
L 1210 leukemia [1] = test: Test 11: L 1210 leukemic mice, examples 7 and 8 (Table VIII); type: in vivo, mouse; design: MTS: unit not given beside the values; details: J+1
Procedure: This test was carried out with 10^3, 10^4 and 10^5 leukemic cells on day J. This test was also carried out with the compound of example 7, i.e. 1-[(γ-diethylaminopropyl)amino]-5-methyl-dipyrido [4,3-b][3,4-f] indole (compound 21).

Lewis carcinoma (3LL) = test: Test 13: Lewis carcinoma, antimetastasic effect; type: in vivo, BDF1 mice
Procedure: "carcinome pulmonaire de Lewis" (3LL), K. SUGIURA and C. C. STOCK," Cancer Res. 1955 15 38-51.
In this test, cells (10^6 cells) removed from a tumour-carrying mouse were injected into mice(BDF1) by the IM route. The mice developed, 10 to 15 days after the inoculation, a tumour at the spot where the injection was made. On the other hand, these cells made metastasis in the lung, forming colonies on the pulmonary surface. The antitumoral and antimetastasic effect of a product may therefore be judged on mice thus treated.
Investigation of the antimetastasic effect of the compounds of examples 7 and 8 of the invention
10^6 cells taken from a tumour-carrying mouse were injected by the IM route (left-band paw) into groups of 10 mice and the compounds to be tested were inoculated by the IP route on day J+5 by single or fractioned injection. The mean survival time (MST) and the increased life span (ILS %) were determined.

L1210 leukemia [2] = test: Test 16: structure-activity of R'1 substitution, L1210 (Table XII); type: in vivo, mouse (C57B16xDBA/2)F1; details: for 60 days surv. / ILS % / Range of death: day +1
Procedure: Test 16: Relationship between structure and activity of various dipyrido indoles differing by the R'1 substitution.
L1210 leukemia has been maintained by weekly passages on (C57B16xDBA/2)F1 mice. On day 0, mice were inoculated by I.P. route with various numbers of L1210 ascitic tumor cells in volumes of 0.1 ml. Subsequently as indicated, drugs were administrated in Ca^++ and Mg^++ free PBS solutions (Gibco) or in Mac Coy's medium (Gibso or Microbiological Associates). […]

mice = test: Test 21: toxicity after intraperitoneal injection; details: for time of deaths after drug administration: IP; for minimal quantity resulting in 100% deaths: ip, 43200 min
Procedure: All drugs were dissolved in aqueous solutions adjusted at pH 5 with acetic acid and inoculated to the mice under a volume of 0.1 ml I.P. after dilution in Mac Coy's medium.
The toxicity of the drugs after intraperitoneal injection was estimated from the mortality rate up to the 30th day.

L 1210 leukemia [3] = test: Test 10: comparison of antitumoral activity with known products, L 1210 (Tables V-VII); type: in vivo, mouse; details: J+3
Procedure: Test 10: Comparison of the antitumoral activity of the compound according to example 7 with that of known products
The compound of example 7, i.e. 1-(γ-diethylaminopropyl)amino-5-methyl-dipyrido-[4,3-b][3,4-f] indole or known compounds were injected into L 1210 leukemic mice 1 or 3 days after the inoculation of the cells at the doses indicated in tables V to VII and the mean survival time (MST) and the precentage of increased life span (ILS %) were measured.
Indications concerned the known products used in this example and particularly their antitumoral properties, their secondary effects and their use in man may be found in "La Chimiotherapie des Cancers", by G. MATHE and M. KENIS Expansion Scientifique Francaise, 3rd edition, Paris 1975.

leukemic cells = test: Test 20: combination of compound 21 with other drugs (Table XV); details: 10^5 cells, BD 40 20 mg/kg day +4, Endoxan 100 mg/kg day +3
Procedure: A priming dose of endoxan (100 mg/kg) was given 3 days after 10^5 leukemic cells (20 mice).

L 1210 leukemia [4] = test: Test 1: antitumoral properties on L 1210 leukemia (Table I); type: in vivo, mouse; details: 0,1 mg/mouse
Procedure: The lower animal antitumoral properties of the compounds according to the invention have been determined by their curative action on inoculated test L-1210 leukemia. [ZUBROD C. G., Proc. Nat. Acad. Sci. 1972, 69, 1042-1047 and SCHEPARTZ SA. SCREENING, 1971, CANCER Chemother. Rep. Part 3 vol.2 p.3].
This leukemia is maintained in ascitic form by passage (i.p. route) on CBDl (C57 B16×DBA/2)F1 mice. The preparation to be tested are injected by the intraperitoneal route at least one day after the inoculation of the cells (one injection only). The results are expressed in increased life span per cent (ILS %) according to KESSEL et al. Cancer Res. 1971, 31, 1883-1887) or in percentage of the number of cells killed by the product (the survival of the animals is proportional to the number of cells injected).
The following tests were made in groups of 10 mice, unless stipulated to the contrary.
Test 1: Study of the antitumoral properties of the compounds of the invention on L 1210 leukemia
The lower animal antitumoral properties of the compounds according to the invention were determined by their curative action on test inoculated L 1210 leukemia.
This leukemia was maintained on CBD 1 (C 57 B 16×DBA/2) F1 mice. The compounds to be tested were injected by the IP route one or more days after the inoculation of the cells (single injection). The results obtained, shown in table I hereinafter, are expressed in percentage of increase of life span (ILS %) and in percentage of the number of cells killed by the compound to be tested, the survival of the animals being proportional to the number of cells injected.
The percentage of the like span ILS % (Cancer. Res. 1971, 31, 1883-1887) is the following ratio: [formula] S^t =survival of the treated animals S^c =survival of the control animals

[5] = tested on: tumoral strain derived from the murine leukemia due to the C. FRIEND virus; test: Test 7: antitumoral activity in vitro on Friend leukemia tumoral strain; type: cell-based; details: HUM = 1
Procedure: Test 7: Study of the antitumoral activity in vitro
This activity was measured on a tumoral strain derived from the murine leukemia due to the C. FRIEND virus.
The tumoral cells multiply in suspension in a "RPMI 1640" medium (Catalogue of GIBCO Bio-cult. Ltd. Washington Road, Sandyford Industrial Estate, PAISLEY PA 3 4EP, Renfrewshire, Scotland) supplemented with 20% of embryonary calf serum, penicillin and streptomycine. The duplication time of these cells is 11 hours. The growth fraction is equal to 1 or very close to 1 (all the cells are in the cycle). The cultures are sub-culturedat time t=0 at the concentration of 2.10^5 cells per ml in Falcon dishes containing 4 ml of medium. After twenty four hours, the product to be tested was added, i.e. at a moment when the cultures are in exponential phase of growth. Twenty four hours after the addition of the product, the cells are counted and the percentage of living cells determined by an exclusion test using "trypan" blue.

L1210 leukemia [6] = test: Test 17: length of substituting chain, L1210 (Table XIII); type: in vivo, mouse
Procedure: Test 17: Relationship between the length of the substituting chain and the activity.
However compound 21 is less toxic (50 mg/kg for compound 21 and 25 mg/kg for compound 23), it has a higher ILS% than compound 23 and 1 mouse survived up to 60 days.

[7] = Table V, 10^4 cells, mg/mouse: example 7 0.2, Thiotepa 0.1, Mitomycine 0.016, BCNU 0.1, Methotrexate 0.250, Endoxan 4
[8] = Table VI, 10^5 cells, mg/mouse: Thiotepa 0.1, Mitomycine C 0.016, BCNU 0.1, Methotrexate 0.250, example 7 0.2, Endoxan 4
[9] = Table V, 10^4 cells, doses mg/mouse: example 7 0.2, Thiotepa 0.1, Mitomycine 0.016, BCNU 0.1, Methotrexate 0.250
[10] = Table VII, 10^5 cells, example 7 0.2 mg/mouse, ON COVIN 0.5 μg/mouse

## Cc1c2ccnc(NCCCN(C)C)c2cc2c1[nH]c1ccncc12 [Example 8, 1-(γ-dimethylaminopropyl)amino-5-methyl-dipyrido-[4,3-b][3,4-f] indole]
L 1210 leukemia [1]; 10^3 cells, 0.05 mg/mouse
  ILS %: 34.9%
  Number of surviving mice: 1
L 1210 leukemia [1]; 10^3 cells, 0.1 mg/mouse
  ILS %: 50.5%
  MTS: 16.4
  Number of surviving mice: 3
L 1210 leukemia [1]; 10^4 cells, 0.05 mg/mouse
  ILS %: 34.9%
  Number of surviving mice: 1
L 1210 leukemia [1]; 10^4 cells, 0.1 mg/mouse
  ILS %: 25.7%
  MTS: 13.7
  Number of surviving mice: 3
L 1210 leukemia [1]; 10^5 cells, 0.05 mg/mouse
  ILS %: 28.1%
  MTS: 11.6
L 1210 leukemia [1]; 10^5 cells, 0.1 mg/mouse
  ILS %: 52.5%
  MTS: 13.8
Lewis carcinoma (3LL); IP from J+5
  protective action concerning metastasic pulmonary invasion of the lung: give a protective action
Lewis carcinoma (3LL); J+5, 5 mg/kg
  ILS %: 9.8%
Lewis carcinoma (3LL); J+5, 5 mg/kg, controls 25
  MST: 27.44
L1210 leukemia [2]; 10^4 cells, 2.5 mg/kg
  60 days surv.: 1
  ILS %: 34.9%
  Range of death: 10-19
L1210 leukemia [2]; 10^5 cells, 5 mg/kg
  60 days surv.: 0
  ILS %: 52.5%
  Range of death: 11-16
L1210 leukemia [2]; Table XII summary
  antitumoral activity compared with Ellipticinium acetate (HUM): compete favorably with Ellipticinium acetate (HUM)
mice
  time of deaths after drug administration: 3 to 5 days
mice; mouse, in vivo
  minimal quantity resulting in 100% deaths: 50 mg/kg

## O=P1(N(CCCl)CCCl)NCCCO1 (stereo not shown) [Endoxan]
L 1210 leukemia [3]; Table V, 10^4 cells, Endoxan 4 mg/mouse
  mice alive on 30th day (of 10): 3
L 1210 leukemia [3]; [7]
  Range of death: 13 days
L 1210 leukemia [3]; [8]
  ILS %: 105.30%
  MTS (mean survival time): 18.6
  Range of death: 15-21
Leukemic cells; BCNU 2 mg/kg
  ILS %: 16.9%
Leukemic cells; BCNU 2 mg/kg immediately after endoxan
  Range of death: 11-17
Leukemic cells; BCNU 2 mg/kg, control 11.2
  MST: 13.1

## Cc1c2ccnc(Cl)c2cc2c1[nH]c1ccncc12 [Example 6, 1-chloro-5-methyl-dipyrido [4,3-b][3,4-f] indole]
L 1210 leukemia [4]
  toxicity in L 1210 test: toxic
L 1210 leukemia [4]; 10^4 and 10^3 cells
  ILS % (difference with the controls): no difference
[5]
  Activity (ratio of the LD50 of HUM to the LD50 of the product tested): 0.3

## CCN(CC)CCCC(C)Nc1nccc2c(C)c3[nH]c4ccncc4c3cc12 (stereo not drawn) [Example 10, 1-[(α-methyl-σ-diethylamino-butyl)-amino]-5-methyl-dipyrido-[4,3-b][3,4-f] indole]
L1210 leukemia [6]; day +4
  ILS %: 56.25%
  Survivors up to 60 days: 0
L1210 leukemia [6]; day +4, control MST 11.2
  MST: 17.5
  Range of death: 12-20
mice
  time of deaths after drug administration: 4 to 6 days
mice; mouse, in vivo
  minimal quantity resulting in 100% deaths: 50 mg/kg

## CN(Cc1cnc2nc(N)nc(N)c2n1)c1ccc(C(=O)N[C@@H](CCC(=O)O)C(=O)O)cc1 [Methotrexate]
L 1210 leukemia [3]; [9]
  ILS %: 44.62%
  MTS (mean survival time): 15.9
L 1210 leukemia [3]; [7]
  Range of death: 15 to 17 days
L 1210 leukemia [3]; [8]
  ILS %: 39.35%
  MTS (mean survival time): 12.62
  Range of death: 12-14

## CC[C@]1(O)C[C@H]2CN(CCc3c([nH]c4ccccc34)[C@@](C(=O)OC)(c3cc4c(cc3OC)N(C=O)[C@H]3[C@@](O)(C(=O)OC)[C@H](OC(C)=O)[C@]5(CC)C=CCN6CC[C@]43[C@@H]65)C2)C1 [ON COVIN]
L 1210 leukemia [3]; [10]
  ILS %: 3.85%
  MTS (mean survival time): 10.8
  Range of death: 10-13

## O=NN(CCCl)C(=O)NCCCl [BCNU]
L 1210 leukemia [3]; [9]
  ILS %: 0.9%
  MTS (mean survival time): 11.1
L 1210 leukemia [3]; [7]
  Range of death: 10 to 12 days
L 1210 leukemia [3]; [8]
  ILS %: 0%
  MTS (mean survival time): 8.8
  Range of death: 8-9

## CO[C@@]12[C@H](COC(N)=O)C3=C(C(=O)C(C)=C(N)C3=O)N1C[C@@H]1N[C@@H]12 [Mitomycine C]
L 1210 leukemia [3]; [9]
  ILS %: 4.95%
  MTS (mean survival time): 11.54
L 1210 leukemia [3]; [7]
  Range of death: 10 to 15 days
L 1210 leukemia [3]; [8]
  ILS %: 0%
  MTS (mean survival time): 9.06
  Range of death: 9-10

## Cc1c2ccnc(NCCN(C)C)c2cc2c1[nH]c1ccncc12 [Example 9, 1-(β-dimethylaminoethyl)amino-5-methyl-dipyrido-[4,3-b][3,4-f] indole]
L1210 leukemia [6]; Table XIII summary
  activity against L1210 leukemia (in words): active against L1210 leukemia
L1210 leukemia [6]; day +1
  ILS %: 65.2%
  Survivors up to 60 days: 0
L1210 leukemia [6]; day +1, control MST 8.8
  MST: 14.6
  Range of death: 11-18
mice
  time of deaths after drug administration: 4 to 6 days
mice; mouse, in vivo
  toxicity (toxic dose): 25 mg/kg
  minimal quantity resulting in 100% deaths: 25 mg/kg

## S=P(N1CC1)(N1CC1)N1CC1 [Thiotepa]
L 1210 leukemia [3]; [9]
  ILS %: 0%
  MTS (mean survival time): 11
L 1210 leukemia [3]; [7]
  Range of death: 10 to 11 days
L 1210 leukemia [3]; [8]
  ILS %: 1.54%
  MTS (mean survival time): 9.2
  Range of death: 9-10

## Cc1c2cc[nH]c(=O)c2cc2c1[nH]c1ccncc12 [Example 5, 1,2-dihydro-1-oxo 5-methyl-dipyrido-[4,3-b][3,4-f] indole]
[5]
  Activity (ratio of the LD50 of HUM to the LD50 of the product tested): 0.15
